Test results taken from patent US20070264411A1, “PROCESS OF PRODUCING A CAPSINOID-CONTAINING FOOD AND DRINK” (AJINOMOTO CO., INC., priority 2006, published 2007).

How the values were obtained:
Type in all cases: physicochemical
[1] = Storage stability of diluted dihydrocapsiate emulsion with added emulsifier DECAGLYN 1-O (HPLC capsinoid content)
Procedure: A dihydrocapsiate emulsion composition was prepared according to the method described in Example 1 of JP Patent Kokai Publication No. JP-P2003-192576A. Briefly, decaglycerin monooleate (Nikko Chemical Co.; trade name, DECAGLYN 1-O) (21 g), glycerin (193 g) and water (26 g) were mixed, dissolved under heating at 90-95° C., and cooled to 30° C. Synthetic dihydrocapsiate (8.5 g) and sucrose acetate isobutyrate (SAIB) (51 g) were added and dissolved under heating at 85-90° C., and the mixture was emulsified at 30-90° C. to prepare a capsinoid-containing emulsion composition (pH 3.6). The resulting emulsion composition was diluted with up to 1000 parts of 0.01M citrate buffer (pH 3.5) supplemented with sucrose to obtain an additive-free sample. On the other hand, the composition was diluted with up to 1000 parts of 0.01M citrate buffer (pH 3.5) supplemented with sucrose to which was added 0.014%, 0.114% emulsifier (Nikko Chemical Co.; DECAGLYN 1-0) respectively, to prepare emulsion-supplemented samples. The resulting samples were sterilized by heating for 20 minutes at 44° C. and stored.
Every one week after storage, the capsinoid content was determined. Analysis of the capsinoid content was performed by high performance liquid chromatography (HPLC) after dilution with an ethyl acetate/methanol (6:4) mixture.

[2] = Storage stability of diluted dihydrocapsiate emulsion with a variety of high molecular weight components added; conditions: 500 parts dilution, FIG. 3
Procedure: In the same manner as in Example 2, a dihydrocapsiate containing emulsion composition was diluted with up to 500 parts of 0.01M citrate buffer (pH 3.5) supplemented with sucrose and the stability of storage was evaluated. Prior to addition of the dihydrocapsiate containing emulsion composition 8 types of high molecular weight components were added to 0.01M citrate buffer (pH 3.5) supplemented with sucrose, and the difference of the stability as a function of the high molecular weight components added was evaluated. […] In regard to the amount of high molecular weight component to be added, xanthan gum was reduced to 0.1% because it gives high viscosity in a small quantity. The amount of other high molecular weight components added than xanthan gum was fixed at 0.5%.

[3] = Storage stability of dihydrocapsiate emulsion mixed with emulsifier in advance or diluted with emulsifier-containing buffer; conditions: stored at 24° C. and 44° C.
Procedure: Into a capsinoid emulsion composition prepared in Example 1 an emulsifier (Nikko Chemical Co., Decaglyn 1-O) was blended at a ratio of 10 to 3 under heating (50-70° C.) to prepare a composition. The resulting composition was diluted with up to 230 parts of 0.01M citrate buffer (pH 3.5) supplemented with sucrose to prepare a mixture of the emulsion composition and the emulsifier. On the other hand, an additive-free sample prepared by diluting the capsinoid emulsion composition (prepared in Example 1) with up to 300 parts of the same buffer was diluted with up to 300 parts of 0.01M citrate buffer (pH 3.5) supplemented with sucrose to which was added an emulsifier (Nikko Chemical Co., DECAGLYN 1-0) in advance at a rate of 0.10%, to prepare a sample containing an emulsifier. In either sample, the content of capsinoid after dilution with the buffer correspond to 0.33% of the initial amount of capsinoid existing in the emulsion composition. Thus prepared samples were sterilized under heat for 20 minutes and stored at 24° C. and 44° C.
In periodical sampling, the content of capsinoid was determined. The content of capsinoid was analyzed by high performance liquid chromatography (HPLC) after dilution with a mixture of ethyl acetate and methanol (6:4).

[4] = Storage stability of diluted dihydrocapsiate emulsion with a variety of emulsifiers added; conditions: 8 emulsifiers of Table 1 other than DECAGLYN 1-O, each at 0.114% in 0.01M citrate buffer (pH 3.5) with sucrose; 1000 parts dilution; FIG. 2
Procedure: In the same manner as in Example 1, a dihydrocapsiate containing emulsion composition was diluted with up to 1000 parts of 0.01M citrate buffer (pH 3.5) supplemented with sucrose and the stability of storage was evaluated. Prior to addition of the dihydrocapsiate containing emulsion composition 8 types of emulsifiers were added to 0.01M citrate buffer (pH 3.5) supplemented with sucrose so as to be 0.114%, and the difference of the stability as a function of the emulsifier added was evaluated.

Row | rate of residual dihydrocapsiate relative to emulsifier-free case ([1]; 0.114% emulsifier (DECAGLYN 1-O) added, about one month after storage, citrate buffer pH 3.5) | storage stability of dihydrocapsiate ([2]; HM pectin 0.5% in 0.01M citrate buffer (pH 3.5) with sucrose) | storage stability of dihydrocapsiate ([2]; carboxymethylcellulose sodium (CMC sodium) 0.5% in 0.01M citrate buffer (pH 3.5) with sucrose) | storage stability of dihydrocapsiate ([2]; carrageenan 0.5% in 0.01M citrate buffer (pH 3.5) with sucrose) | storage stability of dihydrocapsiate ([3]; FIG. 4A: emulsion composition diluted up to 300 parts with buffer to which 0.10% DECAGLYN 1-O was previously added) | storage stability of dihydrocapsiate ([3]; FIG. 4B: emulsion composition pre-blended with Decaglyn 1-O (10 to 3), diluted up to 230 parts with buffer containing no emulsifier) | stability of dihydrocapsiate during storage [4] | Compound | storage stability of dihydrocapsiate ([1]; emulsion composition diluted up to 1000 parts with 0.01M citrate buffer (pH 3.5) with sucrose, 0.014% or 0.114% DECAGLYN 1-O added vs additive-free, FIG. 1)
1 | ≥ 2 times | Improvement of the storage stability | Improvement of the storage stability | Improvement of the storage stability | improves the storage stability | improves the storage stability | improve the stability | COc1cc(COC(=O)CCCCCCC(C)C)ccc1O [dihydrocapsiate] | –
2 | – | – | – | – | – | – | – | dihydrocapsiate | increased with increase of the amount of emulsifier added
